Test results from PMC10587169, “Tuning aminopolycarboxylate chelators for efficient complexation of trivalent actinides” (Scientific Reports, 2023).

Experiments:
[1] = Spectrophotometric titration; type: binding; conditions: spectrophotometrically measured, I = 2.0 M (Na+/H+)ClO4, T = 25 ± 1 °C, ±3σ
Excerpt: Changes in the optical absorption characteristics of Nd^3+ were monitored using a Cary 6000i UV/Vis–NIR Spectrometer (Agilent) using 1 cm semimicro quartz cuvettes (Starna) in double-beam mode, where the ^4I9/2 → ^4G5/2, ^2G7/2 transitions[34] were monitored between 560 and 605 nm with a 0.075 nm interval and 1.0 nm spectral bandwidth. Changes in the optical absorption characteristics of ^243Am^3+ and ^248Cm^3+ were monitored using a Flame-S-VIS–NIR-ES spectrometer coupled to a DH-2000-BAL dual-mode light source (Ocean Optics) with a single 1 cm semimicro quartz cuvette (Starna). […] The complexation of Am^3+ with the ligands was monitored in the 495–525 nm spectral region, looking at the ^7F0′ → ^5L6′ transition[23],[35]. For Cm^3+, ligand complexation was monitored in the 365–410 nm spectral region, looking at the ^8S7/2 → ^2Ji (i = {15}, {13,9}, {11,17}) manifold transitions[24],[25],[36]. Changes in aqueous p[H^+] were monitored throughout each titration step using a Gran-calibrated Orion Ross Semi-micro glass electrode. […] Finally, the spectroscopic data was analyzed using the HypSpec software package[33],[37]. […]
To further validate the competitive solvent extraction methodology the complexation of Am^3+ with H4octapa and Cm^3+ with H4pypa-peg was studied spectrophotometrically. […] The presence of both ligands induced new red-shifted absorption signatures in each monitored titration. […]

[2] = Competitive complexation liquid-liquid extraction with HDEHP; type: binding; conditions: competitive solvent extractions, T = 20 ± 1 °C; for logβ101 (ML), Am3+ / logβ101 (ML), Eu3+ / logβ111 (MHL), Am3+ / logβ111 (MHL), Eu3+: I = 2.00 M sodium perchlorate; for logβ101 (ML), Am3+ / logβ101 (ML), Eu3+ / logβ111 (MHL), Am3+ / logβ111 (MHL), Eu3+ / logK111, Am3+ / logK111, Eu3+: ±3σ; for logβ101 (ML), Cm3+: p[H+] variation not monitored
Method: Stability constants for the coordination of Eu^3+, Am^3+, Cm^3+, and Cf^3+ were also achieved by monitoring the suppression of liquid–liquid partitioning of the radiotracer due to the increasing presence of an aqueous complexant. Aqueous solutions were prepared containing sub-millimolar amounts of ligand while maintaining p[H^+] at 1.7, 1.8, 1.9, 2.0, and 2.1. Ionic strength was maintained at 2.00 M using sodium perchlorate. Aqueous complexation was balanced with the appropriate choice of HDEHP concentration in octane to allow accurate quantification of metal distribution. Non-aqueous phases were pre-equilibrated three times with 2.00 M NaClO4 at the corresponding p[H^+]. Preliminary time-dependent studies indicated the phase transfer equilibrium was attained for all measurements with H4octapa and H4pypa-peg (Figures S2 and S3 in the SI). For the mixtures traced with radioisotopes, the activity was measured using gamma spectroscopy (ORTEC GEM50P4 coaxial HPGe detector, DSPEC gamma spectrometer) for ^154Eu (123.07 keV), ^243Am (74.66 keV), and ^249Cf (388.17 keV) and liquid scintillation counting (Perkin Elmer Tri-Carb 3180 TR/SL) for ^248Cm. The ratio of radioisotope activity in the organic and aqueous phases defined the liquid–liquid distribution.
Liquid–liquid partitioning of trivalent f-elements was monitored in presence of H4octapa and H4pypa-peg using a strong liquid cation exchanger, bis–(2-ethylhexyl)phosphoric acid, HDEHP. This competitive solvent extraction methodology was used to determine the conditional stability constants for complexation of Eu^3+, Am^3+, Cm^3+, and Cf^3+ with H4octapa and H4pypa-peg. The metals, present at radiotracer concentrations ([…]), distributed between an organic phase containing HDEHP in n-octane and an aqueous phase containing the complexant at varying concentrations and aqueous acidity. The interpretation of the competitive complexation liquid–liquid distribution data (SI Tables S3 through S5 for H4octapa and S6 through S8 for H4pypa-peg) considered two complex formation equilibria as described by Eqs. (4) and (5). All collected distribution data indicated the average ligand-to-metal stoichiometry of 1.00 ± 0.04 for H4octapa and 1.00 ± 0.03 for H4pypa-peg (see SI Figures S10A and S11A). The partitioning of a trivalent metal ion as facilitated by a dimerized HDEHP cation exchanger can be expressed by Eq. (6) as quantified by the extraction constant, Kex (subscript org refers to organic-soluble species).6 M^3++3HDEHP2,org⇆MHDEHP23,org+3H^+Kex=MHDEHP23,orgH^+^3/M^3+HDEHP2,org^3
Substitution of equilibrium and extraction constants Eqs. (3)–(5) into Eq. (6) yields Eq. (8).8 DM=KexHDEHP2,org^3H^+^3/1+β101L^4-+β111L^4-H^+
At constant HDEHP concentration and p[H^+], when the distribution of the metal ion in absence of ligand is labelled as D^0, the liquid–liquid partitioning of the metal will adhere to Eq. (9),9 D^0/DM-1=β^appL^4- where β^app is the apparent stability constant as represented by β ^app = β101 + β111[H^+].
The Figs. 7A for H4octapa and Fig. 7C for H4pypa-peg show representative Eu^3+, Am^3+, and Cf^3+ sets of dependencies collected at constant aqueous acidities to determine β^app constants from the slopes of the error-weighted least-squares regression analyses. Equivalent dependencies were also collected at different p[H^+] conditions to study variation of β^app trends with p[H^+] as presented in Figs. 7B,D for H4octapa and H4pypa-peg, respectively. The distribution plots for Eu^3+, Am^3+, and Cf^3+ for H4pypa-peg clearly show variation with the changing aqueous acidity, which yielded good estimates for the conditional stability constants for the formation of ML^− and MHL(aq) (Table 5). The collected trends for Cf^3+ in the presence of H4octapa vary to a lesser extent, enabling the determination of β101 only. The p[H^+] variation was not monitored for the coordination of ^248Cm^3+ with both APC ligands due to limited availability of this radioisotope. […]

Compound | logβ101 (ML), Cm3+ [1] | logβ101 (ML), Am3+ [2] | logβ101 (ML), Eu3+ [2] | logβ111 (MHL), Am3+ [2] | logβ111 (MHL), Eu3+ [2] | logβ101 (ML), Cm3+ [2] | logK111, Am3+ [2] | logK111, Eu3+ [2]
O=C(O)CN(Cc1cc(-c2cn(CCOCCOCCO)nn2)cc(CN(CC(=O)O)Cc2cccc(C(=O)O)n2)n1)Cc1cccc(C(=O)O)n1 [H4pypa-peg, 6,6'-((((4-(1-(2-(2-(2-hydroxyethoxy)ethoxy)ethyl)-1H-1,2,3-triazol-4-yl)pyridine-2,6-diyl)bis–(methylene))bis–((carboxymethyl)azanediyl))bis–(methylene)) dipicolinic acid] | 20.37 (2) | 19.6 (1)^^ | 18.7 (2) | 21.8 (1)^^ | 20.6 (4) | 19.8 | 2.2 (1)^^ | 1.9 (4)
O=C(O)CN(CCN(CC(=O)O)Cc1cccc(C(=O)O)n1)Cc1cccc(C(=O)O)n1 [H4octapa, 6,6′-((ethane-1,2-diylbis–((carboxymethyl)azanediyl))bis–(methylene))dipicolinic acid] | – | 19.3 (6) | 18.59 (2) | – 21.8 (2)^^ | 20.45 (2) | 19.4^^ | – 2.5 (6)^^ | 1.86 (2)
